For orientation: GI50 means the concentration that inhibits growth by half.

The values below come from patent publication US7022720B2, “Synthetic diazonamides as novel anti-mitotic agents” (Board of Regents, The University of Texas System, priority 2001, dated 2006).

The test system of data set [1] is OVCAR-3 cells. In words: In vitro cytotoxicity assay (Promega CellTiter-Glo) in OVCAR-3. The format is cell-based, human. The method, then: A growth inhibition study was also conducted using OVCAR-3 (a human ovarian adenocarcinoma) cells. Human ovarian adenocarcinoma OVCAR-3 cells are treated with diazonamide and control compounds for 48 hours and evaluated for cell viability using the Promega CellTiter-Glo™ Assay (Promega, Madison, Wis.). This assay uses luciferase to measure ATP as indicator of metabolically active cells.

The nature of data set [2]: Comparison of synthesized compound with natural diazonamide (handling stability). In kind it is physicochemical. The source says:
Characteristics of synthesized diazonamide compound, JL-9, were compared to naturally occurring diazonamide. […] The process completes upon attempted preparative HPLC purification of 1b (FIG. 1) under conditions identical to those used to isolate natural (−)-diazonamide A. In addition, a second degradation pathway available in this series appears as a result of the cleavage of the strained macrolactam ring through diketopiperazine formation that involves the C37 amine and the C12 amide carbonyl.

In data set [3] the test system is OVCAR-3 cells. Briefly: Indirect immunofluorescence of tubulin cytoskeleton in OVCAR-3. The conditions noted are these: OVCAR-3, 12 or 23 hours, FIGS. 15D and 15E. The format is cell-based, human. The method, then: Immunofluorescence was performed on JL-9, taxol, vinblastine, control-treated OVCAR-3 cells to examine their effects on tubulin cytoskeleton. Cells were grown on 2 cm glass cover slips in tissue culture wells. Media containing JL-9, vinblastine, or taxol was added at various concentrations and incubated for 12 or 23 hours. Hoescht […] nuclear dye was added directly to the media (1.5 ug/ml) and incubated at 37° C. for 30 minutes. Coverslips were washed 3× with 1×PBS and fixed for 10 minutes with −20C 100% methanol. Coverslips were washed 3× with 1×PBS/1% BSA and treated directly with a 1/2000 dilution of anti-α-tubulin antibody (mouse anti-human). Coverslips were washed 3× with 1×PBS/1% BSA and treated with 1/500 dilution of fluorescently conjugated goat anti-mouse secondary antibody (Alexa Fluor 488). Coverslips were washed 3× with 1×PBS/1% BSA and mounted on microscope slides using mounting media (Aqua Poly Mount). Images were obtained using Zeiss Axiovert 100M digital light and confocal microscopy.

In data set [4] the test system is BSC-1 cells. In words: Immunofluorescence of alpha tubulin in BSC-1 cells after thymidine block. In kind it is cell-based, African Green Monkey. The settings on record: BSC-1, 100 nM, 12 hours after thymidine block, FIG. 16. As for the experimental part:
Immunofluorescence was also performed on JL-9, JL-10, taxol and vinblastine-treated BSC-1 cells subjected to thymidine block. BCS-1 African Green Monkey kidney cells were treated for 18 hours in culture medium containing 2 mM thymidine and then returned to normal medium containing 100 nM of taxol, vinblastine, JL-10 (control) or JL-9 for 12 hours. During the last 30 minutes, Hoecht's dye was added to 100 nM to stain chromosomes. Cells were fixed in cold methanol and stained with antibody specific for alpha tubulin. Images of the organization of microtubules in spindles were collected with a laser scanning confocal microscope using a single 488 nm excitation wavelength.

Data set [5] relates to SK-MEL-5 cells. Briefly: MTT assay in SK-MEL-5. The format is cell-based, human. The conditions noted are these: SK-MEL-5, MTT, FIG. 13. The source says: This assay measures cellular viability and proliferation based on the ability of live cells to take up and cleave a tetrazolium salt to generate a colored product.
Background: Formazan colour is commonly taken as a measure of viable cells.

Data set [6] concerns HCT-116 cells. In kind it is cell-based, human. The settings on record: 30 nM, 12-48 hours, FIG. 14. The method, then: FACS Analysis was performed on HCT-116 cells to examine the effect of JL-9 on mitosis. 150,000 HCT-116 cells were incubated per well with media into six well tissue culture plates. Cells were allowed to adhere for 16–18 hours. Media containing 0.01% ethanol (vehicle control), 30 nanomolar (nM) taxol, 30 nM vinblastine and 30 nM JL-9 was added to cells and incubated for 12, 24, 36, or 48 hours. At these time points, cells were harvested with 0.25% trypsin 1 mM EDTA, and transferred to 1.5 ml Eppendorf tubes. Cells were pelleted and washed twice with 1×PBS. Cells were then fixed in −20° C. 100% ethanol and stored at 4° C. Cells were pelleted from 100% ethanol, washed once with 1×PBS, and treated with Vindelov's propidium iodide solution (50 ug/ml propidium iodide, 0.01 mM NaCl, 0.1% IPEGAL, 0.01 mg RNase) and 1 mg/ml RNAse for 30 minutes at 37° C. Propidium iodide is a fluorescent marker that binds to nucleotides. It can be used with FACS scan analysis to determine the ploidy of a population of cells. FACS scan analysis was performed using […] FACScan instrument. Data was analyzed using Cell Quest software.

Data set [7] has as its system HCT-116 cells. The conditions noted are these: HCT-116 human colorectal carcinoma line; cited from earlier work.

Like-named read-outs stand apart in the source and are kept apart here. Where only a bound is given, the exact number is not on record here.

With `CC(C)[C@H](O)C(=O)N[C@H]1Cc2ccc3c(c2)C24C5=C(N=C(O5)[C@H](C(C)C)NC1=O)c1nc(Cl)c(o1)-c1c(Cl)[nH]c5cccc(c15)-c1cccc2c1OC4O3` (stereo partly drawn) [JL-9], halving of growth in data set [1] (Homo sapiens, OVCAR-3, 48 h) (GI50) required 16 nM. In data set [1] (OVCAR-3 in vitro), the “fold more potent than JL-10 at inhibiting growth” value is recorded as more than 50 fold; the “potency relative to natural diazonamide A and paclitaxel” value was “equipotent to natural diazonamide A and paclitaxel”. Moreover, the stability on handling entry in data set [2] was “susceptible to handling”. The “effect on tubulin cytoskeleton” value in data set [3] is “aberrant effects on the cytoskeleton and formation of abnormal mitotic spindles”. Besides, the “mitotic figures / spindle organization” value in data set [4] was “Mitotic figures were frequently found”. Further, in data set [5], the “cytotoxic and growth inhibitory effect” value is “potent cytotoxic and growth inhibitory effect”. Moreover, in data set [6], the “cell cycle arrest (ploidy)” value is “arrests HCT-116 cells in the tetraploid (4n) state”.

Consider `CC[C@]1(O)C[C@@H]2CN(CCc3c([nH]c4ccccc34)[C@@](C(=O)OC)(c3cc4c(cc3OC)N(C)[C@H]3[C@@](O)(C(=O)OC)[C@H](OC(C)=O)[C@]5(CC)C=CCN6CC[C@]43[C@@H]65)C2)C1` [vinblastine, reference compound], for which the “mitotic figures / spindle organization” value in data set [4] is reported as “Mitotic figures were frequently found”. The “cell cycle arrest (ploidy)” value in data set [6] was “arrests HCT-116 cells in the tetraploid (4n) state”.

In the case of `CC(C)[C@H](N)C(=O)N[C@H]1Cc2ccc3c(c2)C24C5=C(N=C(O5)[C@H](C(C)C)NC1=O)c1nc(Cl)c(o1)-c1c(Cl)[nH]c5cccc(c15)-c1cccc2c1OC4O3` (stereo partly drawn) [JL-10], growth in data set [1] (Homo sapiens, OVCAR-3, 48 h) was halved (GI50) at 845 nM. For the same molecule, the “mitotic figures / spindle organization” value in data set [4] is listed as “resembled the vehicle controls”. Moreover, the “cytotoxic and growth inhibitory effect” value in data set [5] is “inactive analogue”.

For `CC(C)[C@H](O)C(=O)N[C@H]1Cc2ccc3c(c2)[C@]24C5=C(N=C(O5)[C@H](C(C)C)NC1=O)c1nc(Cl)c(o1)-c1c(Cl)[nH]c5cccc(c15)-c1cccc2c1N[C@@H]4O3` [natural diazonamide, diazonamide A, reference compound], the GI50 in data set [1] (OVCAR-3, 48 hours, CellTiter-Glo, read-out: GI50) turned out to be 8 nM. The “GI50 (50% growth inhibitory concentration)” value in data set [7] is on record as “less than 15 ng/ml”.

Regarding `CC(=O)O[C@H]1C(=O)[C@@]2(C)[C@H]([C@H](OC(=O)c3ccccc3)[C@]3(O)C[C@H](OC(=O)[C@H](O)[C@@H](NC(=O)c4ccccc4)c4ccccc4)C(C)=C1C3(C)C)[C@]1(OC(C)=O)CO[C@@H]1C[C@@H]2O` [paclitaxel, reference compound], the 50% growth inhibitory concentration (GI50) in data set [1] (Homo sapiens, OVCAR-3, 48 hours, CellTiter-Glo, read-out: GI50) came to 8 nM. Besides, the “mitotic figures / spindle organization” value in data set [4] was “Mitotic figures were frequently found”. Besides, in data set [6], the “cell cycle arrest (ploidy)” value is listed as “arrests HCT-116 cells in the tetraploid (4n) state”.
